Data set [1] in a line: pI (analytical data, Table 2). In kind it is physicochemical. The text has this:
Using substantially the procedures of both Examples 1 and 2, the compounds of Examples 3-15 were obtained by using the appropriate glycopeptide and amine starting materials.

Data set [2] has as its system Staphylococcus epidermidis. Nature of the data set: standard microtiter assay, minimum inhibitory concentration. In kind it is cell-based. Set-up: minimum inhibitory concentration of antibiotic, Test Organism 8: unit not given here. The following applies: for minimum inhibitory concentration of antibiotic, Test Organism 6: Test Organism 6, strain of Staphylococcus epidermidis; for minimum inhibitory concentration of antibiotic, Test Organism 8: Test Organism 8, strain of Staphylococcus epidermidis; for minimum inhibitory concentration of antibiotic, Test Organism 11: Test Organism 11, strain of Staphylococcus epidermidis; for minimum inhibitory concentration of antibiotic, Test Organism 13: Test Organism 13, strain of Staphylococcus epidermidis; for minimum inhibitory concentration of antibiotic, Test Organism 14: Test Organism 14, strain of Staphylococcus epidermidis. From the text: (§1) Representative results of standard microtiter assays are reported in Table 1 which follows, as the minimum inhibitory concentration of antibiotic (mg/ml). In Table 1, test organisms 1-5 were different strains of Staphylococcus aureus; 6, 8, 11, 13 and 14 were different strains of Staphylococcus epidermidis; 7 was a Staphylococcus haemolyticus; 9 and 10 were different strains of Streptococcus faecalis; and 12 was a Staphylococcus saprophyticus.

Data set [3] deals with Staphylococcus saprophyticus. The data set is described as above. In kind it is cell-based. The following applies: Test Organism 12, Staphylococcus saprophyticus.
Text: as §1

Data set [4] relates to Staphylococcus haemolyticus. The data set is described as above. The following applies: Test Organism 7, Staphylococcus haemolyticus. In kind it is cell-based.
Text: as §1

The next data set deals with Staphylococcus aureus. Described as above. In kind it is cell-based. The following applies: for minimum inhibitory concentration of antibiotic, Test Organism 1: Test Organism 1, strain of Staphylococcus aureus; for minimum inhibitory concentration of antibiotic, Test Organism 2: Test Organism 2, strain of Staphylococcus aureus; for minimum inhibitory concentration of antibiotic, Test Organism 3: Test Organism 3, strain of Staphylococcus aureus; for minimum inhibitory concentration of antibiotic, Test Organism 4: Test Organism 4, strain of Staphylococcus aureus; for minimum inhibitory concentration of antibiotic, Test Organism 5: Test Organism 5, strain of Staphylococcus aureus.
Text: as §1

The subject of a further data set is Streptococcus faecalis. The data set is described as above. In kind it is cell-based. The following applies: for minimum inhibitory concentration of antibiotic, Test Organism 9: Test Organism 9, strain of Streptococcus faecalis; for minimum inhibitory concentration of antibiotic, Test Organism 10: Test Organism 10, strain of Streptococcus faecalis.
Text: as §1

Turning to `CNC1C(=O)NC2C(=O)NC(C(=O)NC3C(=O)NC4C(=O)NC(C(=O)NC(C(N)=O)c5cc(O)cc(O)c5-c5cc4ccc5O)C(O)c4cc(Cl)c(c(Cl)c4)Oc4cc3cc(c4O)Oc3ccc(cc3Cl)C2O)c2cc(cc(O)c2Cl)Oc2cc1ccc2O` (stereo not drawn) [Compound 2c, Ardacin aglycone amide], the pI in data set [1] is 7.1. In data set [2], the “minimum inhibitory concentration of antibiotic, Test Organism 6” value was found to be 0.4 mg/mL; the “minimum inhibitory concentration of antibiotic, Test Organism 8” value stood at 0.4; the “minimum inhibitory concentration of antibiotic, Test Organism 11” value is 0.4 mg/mL; the “minimum inhibitory concentration of antibiotic, Test Organism 13” value came out at 0.4 mg/mL. Also, the “minimum inhibitory concentration of antibiotic, Test Organism 14” value in data set [2] worked out at 0.2 mg/mL. Besides, the “minimum inhibitory concentration of antibiotic, Test Organism 12” value in data set [3] came out at 0.2 mg/mL. Further, the “minimum inhibitory concentration of antibiotic, Test Organism 7” value in data set [4] is 0.8 mg/mL. Further, in the data set on Staphylococcus aureus, the “minimum inhibitory concentration of antibiotic, Test Organism 1” value came out at 0.2 mg/mL; the “minimum inhibitory concentration of antibiotic, Test Organism 2” value came to 0.2 mg/mL; the “minimum inhibitory concentration of antibiotic, Test Organism 3” value was determined as 0.4 mg/mL; the “minimum inhibitory concentration of antibiotic, Test Organism 4” value was 0.4 mg/mL. Also, in the data set with Staphylococcus aureus, the “minimum inhibitory concentration of antibiotic, Test Organism 5” value was found to be 0.2 mg/mL. In addition, in the data set with Streptococcus faecalis, the “minimum inhibitory concentration of antibiotic, Test Organism 9” value stood at 0.2 mg/mL and the “minimum inhibitory concentration of antibiotic, Test Organism 10” value was 0.4 mg/mL.

In data set [1], `CNC1C(=O)NC2C(=O)NC(C(=O)NC3C(=O)NC4C(=O)NC(C(=O)NC(C(=O)NCCO)c5cc(O)cc(O)c5-c5cc4ccc5O)C(O)c4cc(Cl)c(c(Cl)c4)Oc4cc3cc(c4O)Oc3ccc(cc3Cl)C2O)c2cc(cc(O)c2Cl)Oc2cc1ccc2O` (stereo not drawn) [Compound 2d, Ardacin aglycone-(2-hydroxyethyl amide)] had a pI of 7.1. Besides, in data set [2], the “minimum inhibitory concentration of antibiotic, Test Organism 6” value came out at 0.4 mg/mL; the “minimum inhibitory concentration of antibiotic, Test Organism 11” value is 0.8 mg/mL; the “minimum inhibitory concentration of antibiotic, Test Organism 13” value is 0.2 mg/mL; the “minimum inhibitory concentration of antibiotic, Test Organism 14” value came out at 0.4 mg/mL. In addition, in data set [3], the “minimum inhibitory concentration of antibiotic, Test Organism 12” value was 0.4 mg/mL. The “minimum inhibitory concentration of antibiotic, Test Organism 7” value in data set [4] is 0.8 mg/mL. Further, in the data set on Staphylococcus aureus, the “minimum inhibitory concentration of antibiotic, Test Organism 1” value is 0.05 mg/mL; the “minimum inhibitory concentration of antibiotic, Test Organism 2” value worked out at 0.05 mg/mL; the “minimum inhibitory concentration of antibiotic, Test Organism 3” value was 0.05 mg/mL; the “minimum inhibitory concentration of antibiotic, Test Organism 4” value is 0.2 mg/mL. Besides, the “minimum inhibitory concentration of antibiotic, Test Organism 5” value with Staphylococcus aureus came out at 0.2 mg/mL. The “minimum inhibitory concentration of antibiotic, Test Organism 9” value in the data set with Streptococcus faecalis was determined as 0.2 mg/mL.

`CNCCNC(=O)C1NC(=O)C2NC(=O)C(NC(=O)C3NC(=O)C4NC(=O)C(NC(=O)C(NC)c5ccc(O)c(c5)Oc5cc(O)c(Cl)c4c5)C(O)c4ccc(c(Cl)c4)Oc4cc3cc(c4O)Oc3c(Cl)cc(cc3Cl)C2O)c2ccc(O)c(c2)-c2c(O)cc(O)cc21` (stereo not drawn) [Compound 2f, Ardacin aglycone-(2-Nmethylaminoethyl amide)]: the pI in data set [1] is 7.7. Besides, in data set [2], the “minimum inhibitory concentration of antibiotic, Test Organism 6” value worked out at 0.2 mg/mL; the “minimum inhibitory concentration of antibiotic, Test Organism 8” value is 0.1; the “minimum inhibitory concentration of antibiotic, Test Organism 11” value was 0.1 mg/mL; the “minimum inhibitory concentration of antibiotic, Test Organism 13” value turned out to be 0.05 mg/mL. Besides, the “minimum inhibitory concentration of antibiotic, Test Organism 14” value in data set [2] came to 0.1 mg/mL. Besides, in data set [3], the “minimum inhibitory concentration of antibiotic, Test Organism 12” value was 0.1 mg/mL. Further, the “minimum inhibitory concentration of antibiotic, Test Organism 7” value in data set [4] is 0.2 mg/mL. For the same compound, in the data set on Staphylococcus aureus, the “minimum inhibitory concentration of antibiotic, Test Organism 1” value stood at 0.2 mg/mL; the “minimum inhibitory concentration of antibiotic, Test Organism 2” value is 0.2 mg/mL; the “minimum inhibitory concentration of antibiotic, Test Organism 3” value was 0.1 mg/mL; the “minimum inhibitory concentration of antibiotic, Test Organism 4” value was 0.2 mg/mL. Besides, the “minimum inhibitory concentration of antibiotic, Test Organism 5” value in the data set with Staphylococcus aureus is 0.1 mg/mL. Further, in the data set with Streptococcus faecalis, the “minimum inhibitory concentration of antibiotic, Test Organism 9” value was 0.1 mg/mL and the “minimum inhibitory concentration of antibiotic, Test Organism 10” value is 0.1 mg/mL.

Consider `CNC1C(=O)NC2C(=O)NC(C(=O)NC3C(=O)NC4C(=O)NC(C(=O)NC(C(=O)NCCN(C)C)c5cc(O)cc(O)c5-c5cc4ccc5O)C(O)c4cc(Cl)c(c(Cl)c4)Oc4cc3cc(c4O)Oc3ccc(cc3Cl)C2O)c2cc(cc(O)c2Cl)Oc2cc1ccc2O` (stereo not drawn) [Compound 2g, Ardacin aglycone-(2-N,Ndimethylaminoethyl amide)], for which the pI in data set [1] is listed as 7.7. In data set [2], the “minimum inhibitory concentration of antibiotic, Test Organism 6” value turned out to be 0.2 mg/mL; the “minimum inhibitory concentration of antibiotic, Test Organism 8” value is reported as 0.2; the “minimum inhibitory concentration of antibiotic, Test Organism 11” value was 0.2 mg/mL; the “minimum inhibitory concentration of antibiotic, Test Organism 13” value is 0.05 mg/mL. In addition, the “minimum inhibitory concentration of antibiotic, Test Organism 14” value in data set [2] stood at 0.05 mg/mL. The “minimum inhibitory concentration of antibiotic, Test Organism 12” value in data set [3] came out at 0.1 mg/mL. In addition, the “minimum inhibitory concentration of antibiotic, Test Organism 7” value in data set [4] was 0.2 mg/mL. In the data set on Staphylococcus aureus, the “minimum inhibitory concentration of antibiotic, Test Organism 1” value worked out at 0.2 mg/mL; the “minimum inhibitory concentration of antibiotic, Test Organism 2” value came to 0.1 mg/mL; the “minimum inhibitory concentration of antibiotic, Test Organism 3” value is 0.2 mg/mL; the “minimum inhibitory concentration of antibiotic, Test Organism 4” value was found to be 0.4 mg/mL. In addition, the “minimum inhibitory concentration of antibiotic, Test Organism 5” value with Staphylococcus aureus came out at 0.1 mg/mL. Further, in the data set on Streptococcus faecalis, the “minimum inhibitory concentration of antibiotic, Test Organism 9” value is 0.1 mg/mL and the “minimum inhibitory concentration of antibiotic, Test Organism 10” value turned out to be 0.2 mg/mL.

With `CNC1C(=O)NC2C(=O)NC(C(=O)NC3C(=O)NC4C(=O)NC(C(=O)NC(C(=O)NCCCCCCN)c5cc(O)cc(O)c5-c5cc4ccc5O)C(O)c4cc(Cl)c(c(Cl)c4)Oc4cc3cc(c4O)Oc3ccc(cc3Cl)C2O)c2cc(cc(O)c2Cl)Oc2cc1ccc2O` (stereo not drawn) [Compound 2h, Ardacin aglycone-(6-aminohexyl amide)], the pI in data set [1] came out at 7.7. Besides, in data set [2], the “minimum inhibitory concentration of antibiotic, Test Organism 6” value amounted to 0.1 mg/mL; the “minimum inhibitory concentration of antibiotic, Test Organism 8” value came to 0.1; the “minimum inhibitory concentration of antibiotic, Test Organism 11” value amounted to 0.2 mg/mL; the “minimum inhibitory concentration of antibiotic, Test Organism 13” value was determined as 0.1 mg/mL. The “minimum inhibitory concentration of antibiotic, Test Organism 12” value in data set [3] was determined as 0.2 mg/mL. In addition, in data set [4], the “minimum inhibitory concentration of antibiotic, Test Organism 7” value came out at 0.2 mg/mL. Besides, in the data set with Staphylococcus aureus, the “minimum inhibitory concentration of antibiotic, Test Organism 1” value came out at 0.1 mg/mL; the “minimum inhibitory concentration of antibiotic, Test Organism 2” value worked out at 0.1 mg/mL; the “minimum inhibitory concentration of antibiotic, Test Organism 3” value amounted to 0.4 mg/mL; the “minimum inhibitory concentration of antibiotic, Test Organism 4” value was determined as 0.1 mg/mL. In addition, the “minimum inhibitory concentration of antibiotic, Test Organism 5” value in the data set with Staphylococcus aureus stood at 0.1 mg/mL. Moreover, in the data set on Streptococcus faecalis, the “minimum inhibitory concentration of antibiotic, Test Organism 9” value stood at 0.1 mg/mL and the “minimum inhibitory concentration of antibiotic, Test Organism 10” value came out at 0.1 mg/mL.

(Values after patent publication US4882313A, “Carboxamide derivatives of glycopeptides” (SmithKline Beckman Corporation, priority 1987, dated 1989).)
